Data on 34 compounds can be found in patent publication US7662832B2, “Pyrrolo[2,3-c]pyridine derivatives and processes for the preparation thereof” (priority 2004, dated 2010).

Counter-ions that a name gives are not always drawn.

The target in the test is Proton Pump (H^+/K^+-ATPase) (Sus scrofa, UniProt P19156). The experiment in a line: Inhibitory effects on proton pump (H^+/K^+-ATPase) activity. The class given is biochemical. As to conditions: hog gastric vesicles; K^+ stimulated H^+/K^+-ATPase activity; 30 minutes at 37° C.
Chain of Proton Pump (H^+/K^+-ATPase) (P19156 2-1034 limits assumed): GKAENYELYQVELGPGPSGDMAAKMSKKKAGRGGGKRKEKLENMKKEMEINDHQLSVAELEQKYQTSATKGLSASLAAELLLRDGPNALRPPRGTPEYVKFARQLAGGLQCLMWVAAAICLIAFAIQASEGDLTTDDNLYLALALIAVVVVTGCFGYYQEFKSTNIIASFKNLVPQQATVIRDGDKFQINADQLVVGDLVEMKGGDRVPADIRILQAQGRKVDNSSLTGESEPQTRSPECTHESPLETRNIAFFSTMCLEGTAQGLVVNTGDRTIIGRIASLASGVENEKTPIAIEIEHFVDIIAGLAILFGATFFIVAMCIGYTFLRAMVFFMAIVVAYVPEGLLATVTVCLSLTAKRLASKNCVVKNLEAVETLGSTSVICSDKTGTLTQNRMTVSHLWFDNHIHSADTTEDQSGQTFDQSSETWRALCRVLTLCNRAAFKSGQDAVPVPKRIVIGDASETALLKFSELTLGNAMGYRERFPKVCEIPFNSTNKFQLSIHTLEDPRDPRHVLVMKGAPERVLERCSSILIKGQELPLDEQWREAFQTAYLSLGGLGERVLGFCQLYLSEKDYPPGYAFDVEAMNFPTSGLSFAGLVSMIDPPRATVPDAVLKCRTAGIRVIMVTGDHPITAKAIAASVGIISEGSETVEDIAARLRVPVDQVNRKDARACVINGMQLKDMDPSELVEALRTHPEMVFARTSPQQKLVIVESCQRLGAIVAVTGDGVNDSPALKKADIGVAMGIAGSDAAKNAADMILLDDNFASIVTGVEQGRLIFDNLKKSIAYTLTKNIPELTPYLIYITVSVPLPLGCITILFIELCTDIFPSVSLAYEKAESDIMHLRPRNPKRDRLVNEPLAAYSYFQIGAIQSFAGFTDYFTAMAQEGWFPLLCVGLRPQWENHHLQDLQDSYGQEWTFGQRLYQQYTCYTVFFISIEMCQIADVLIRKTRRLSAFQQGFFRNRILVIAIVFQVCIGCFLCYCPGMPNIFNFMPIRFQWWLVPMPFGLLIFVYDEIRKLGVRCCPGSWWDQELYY
Chain of Proton Pump (H^+/K^+-ATPase) (P18434 whole entry partner): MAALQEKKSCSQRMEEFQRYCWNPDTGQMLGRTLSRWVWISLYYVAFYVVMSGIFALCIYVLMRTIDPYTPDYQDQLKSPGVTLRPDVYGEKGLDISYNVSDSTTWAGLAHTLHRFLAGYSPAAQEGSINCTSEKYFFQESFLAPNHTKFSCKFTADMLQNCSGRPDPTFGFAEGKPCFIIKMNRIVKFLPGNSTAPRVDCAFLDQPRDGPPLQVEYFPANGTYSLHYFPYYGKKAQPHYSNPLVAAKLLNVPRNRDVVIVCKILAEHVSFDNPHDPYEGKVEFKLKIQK
Compound `Cc1c(C)n(Cc2cccc(F)c2)c2c(N3CCc4ccccc4C3)nc(C=O)cc12` [Example 864, 7-(3,4-dihydro-1H-isoquinolin-2-yl)-1-(3-fluorobenzyl)-2,3-dimethyl-1H-pyrrolo[2,3-c]pyridin-5-carbaldehyde hydrochloride] showed an IC50 of 213 nM.

For the compound `COCCn1c(C)c(C)c2ccnc(N3CCc4ccccc4C3C3CC3)c21` (stereo not shown) [Example 571, 1-cyclopropyl-2-[1-(2-methoxyethyl)-2,3-dimethyl-1H-pyrrolo[2,3-c]pyridin-7-yl]-1,2,3,4-tetrahydroisoquinoline hydrochloride], the midpoint of inhibition, the IC50, lay at 470 nM. As for `C=CCn1c(C)c(C)c2cc(C(=O)NC3CC3)nc(N3CCc4ccccc4C3)c21` [Example 761, 1-allyl-7-(3,4-dihydro-1H-isoquinolin-2-yl)-2,3-dimethyl-N-cyclopropyl-1H-pyrrolo[2,3-c]pyridin-5-carboxamide], the figure is 125 nM; as for `Cc1c(C)n(Cc2ccccc2)c2c(COc3ccc(Cl)cc3)nccc12` [Example 43, 1-benzyl-7-(4-chlorophenoxymethyl)-2,3-dimethyl-1H-pyrrolo[2,3-c]pyridine hydrochloride], 130 nM.

Regarding `CCn1c(C)c(C)c2cc(C(=O)N3CCC(CO)CC3)nc(N3CCc4ccccc4C3)c21` [Example 805, [7-(3,4-dihydro-1H-isoquinolin-2-yl)-1-ethyl-2,3-dimethyl-1H-pyrrolo[2,3-c]pyridin-5-yl]-(4-hydroxymethylpiperidin-1-yl)-methanone hydrochloride], the IC50 was determined as 31 nM. In the case of `Cc1[nH]c2c(N3CCc4ccccc4C3C)nccc2c1C` (stereo not shown) [Example 552, 2-(2,3-dimethyl-1H-pyrrolo[2,3-c]pyridin-7-yl)-1-methyl-1,2,3,4-tetrahydroisoquinoline hydrochloride] it was 36 nM; in that of `Cc1c(C)n(Cc2ccc(F)cc2)c2c(N3CCc4ccccc4C3)nc(C(=O)N3CCN(C)CC3)cc12` [Example 831, [7-(3,4-dihydro-1H-isoquinolin-2-yl)-1-(4-fluorobenzyl)-2,3-dimethyl-1H-pyrrolo[2,3-c]pyridin-5-yl]-(4-methylpiperazin-1-yl)-methanone hydrochloride], 39 nM.

In the case of `C=CCCn1c(C)c(C)c2ccnc(NCc3ccccc3)c21` [Example 181, 7-benzylamino-1-(but-3-enyl)-2,3-dimethyl-1H-pyrrolo[2,3-c]pyridine hydrochloride], the IC50 was 360 nM.

As for `Cc1c(C)n(Cc2cccc(F)c2)c2c(N3CCc4ccccc4C3)nc(C(=O)O)cc12` [Example 737, 7-(3,4-dihydro-1H-isoquinolin-2-yl)-1-(3-fluorobenzyl)-2,3-dimethyl-1H-pyrrolo[2,3-c]pyridin-5-carboxylic acid], the IC50 came to 25 nM. `CCC1c2ccccc2CCN1c1nccc2c(C)c(C)[nH]c12` (stereo not shown) [Example 574, 2-(2,3-dimethyl-1H-pyrrolo[2,3-c]pyridin-7-yl)-1-ethyl-1,2,3,4-tetrahydroisoquinoline hydrochloride] had an IC50 of 420 nM. As for `Cc1ccccc1CNc1nccc2c(C)c(C)n(Cc3ccc(F)cc3)c12` [Example 219, 1-(4-fluorobenzyl)-2,3-dimethyl-7-(2-methylbenzylamino)-1H-pyrrolo[2,3-c]pyridine hydrochloride], the figure is 1240 nM; as for `Cc1c(C)n(CC(C)C)c2c(-c3ccc(Cl)cc3)nccc12` [Example 304, 7-(4-chlorophenyl)-1-isobutyl-2,3-dimethyl-1H-pyrrolo[2,3-c]pyridine hydrochloride], 915 nM; as for `Cc1c(C)n(Cc2cccc(Cl)c2)c2c(N3CCc4ccccc4C3)nc(C(=O)N3CCSCC3)cc12` [Example 790, [1-(3-chlorobenzyl)-7-(3,4-dihydro-1H-isoquinolin-2-yl)-2,3-dimethyl-1H-pyrrolo[2,3-c]pyridin-5-yl]-(thiomorpholin-1-yl)-methanone hydrochloride], 128 nM. For `Cc1c(C)n(CC2CC2)c2c(COc3ccc(F)cc3F)nccc12` [Example 35, 1-cyclopropylmethyl-7-(2,4-difluorophenoxymethyl)-2,3-dimethyl-1H-pyrrolo[2,3-c]pyridine hydrochloride], it took 846 nM to reach half-maximal inhibition (IC50). As to `Cc1c(C)n(Cc2ccccc2)c2c(NCc3ccc(F)cc3)nc(C(=O)N3CCCCC3)cc12` [Example 908, [1-benzyl-7-(4-fluorobenzylamino)-2,3-dimethyl-1H-pyrrolo[2,3-c]pyridin-5-yl]-(piperidin-1-yl)-methanone hydrochloride], half-maximal inhibition (IC50) was put at 384 nM. Turning to `Cc1[nH]c2c(-c3ccc4ccccc4c3)nccc2c1C` [Example 410, 2,3-dimethyl-7-(naphthalen-2-yl)-1H-pyrrolo[2,3-c]pyridine sodium], the IC50 is 99 nM. As for `Cc1c(C)n(CC(C)C)c2c(N(C)Cc3ccc(F)cc3)nccc12` [Example 149, 7-[N-(4-fluorobenzyl)-N-methyl]amino-1-isobutyl-2,3-dimethyl-1H-pyrrolo[2,3-c]pyridine hydrochloride], the figure is 210 nM; as for `CCn1c(C)c(C)c2ccnc(NCc3ccc(F)cc3)c21` [Example 223, 1-ethyl-7-(4-fluorobenzylamino)-2,3-dimethyl-1H-pyrrolo[2,3-c]pyridine hydrochloride], 440 nM; as for `Cc1c(C)n(Cc2ccccc2)c2c(COc3ccc(F)cc3)nccc12` [Example 3, 1-benzyl-7-(4-fluorophenoxymethyl)-2,3-dimethyl-1H-pyrrolo[2,3-c]pyridine hydrochloride], 58 nM. As for `Cc1[nH]c2c(N3CCc4ccccc4C3C)nccc2c1C` (stereo not shown) [Example 560, 2-(2,3-dimethyl-1H-pyrrolo[2,3-c]pyridin-7-yl)-1-methyl-1,2,3,4-tetrahydroisoquinoline sodium], the figure is 17 nM; as for `C=CCn1c(C)c(C)c2cc(C(=O)NCc3cccc(Cl)c3)nc(N3CCc4ccccc4C3)c21` [Example 758, 1-allyl-7-(3,4-dihydro-1H-isoquinolin-2-yl)-2,3-dimethyl-N-(3-chlorobenzyl)-1H-pyrrolo[2,3-c]pyridin-5-carboxamide hydrochloride], 316 nM; as for `Cc1cccc(Cn2c(C)c(C)c3cc(C(=O)N4CCNCC4)nc(N4CCc5ccccc5C4)c32)c1` [Example 814, [7-(3,4-dihydro-1H-isoquinolin-2-yl)-2,3-dimethyl-1-(3-methylbenzyl)-1H-pyrrolo[2,3-c]pyridin-5-yl]-(piperazin-1-yl)-methanone hydrochloride], 31 nM.

The compound `C=CCn1c(C)c(C)c2ccnc(N3CCc4ccccc4C3)c21` [Example 494, 1-allyl-7-(1,2,3,4-tetrahydroisoquinolin-2-yl)-2,3-dimethyl-1H-pyrrolo[2,3-c]pyridine hydrobromide] returned an IC50 of 4 nM. Against the preceding compound, the IC50 is about 7.8-fold lower. In the case of `Cc1c(C)n(Cc2ccc(C(C)(C)C)cc2)c2c(N3CCc4ccccc4C3)nc(C(=O)N3CCN(C)CC3)cc12` [Example 835, [1-(4-tert-butylbenzyl)-7-(3,4-dihydro-1H-isoquinolin-2-yl)-2,3-dimethyl-1H-pyrrolo[2,3-c]pyridin-5-yl]-(4-methylpiperazin-1-yl)-methanone hydrochloride] it was 134 nM. In the case of `CCn1nnnc1-c1cc2c(C)c(C)n(Cc3cccc(Cl)c3)c2c(N2CCc3ccccc3C2)n1` [Example 854, 2-[1-(3-chlorobenzyl)-2,3-dimethyl-5-(1-ethyl-1H-tetrazol-5-yl)-1H-pyrrolo[2,3-c]pyridin-7-yl]-1,2,3,4-tetrahydroisoquinoline] it was 282 nM; in that of `CCn1c(C)c(C)c2cc(C(=O)N3CCN(c4ccccc4)CC3)nc(N3CCc4ccccc4C3)c21` [Example 810, [7-(3,4-dihydro-1H-isoquinolin-2-yl)-1-ethyl-2,3-dimethyl-1H-pyrrolo[2,3-c]pyridin-5-yl]-(4-phenylpiperazin-1-yl)-methanone hydrochloride], 436 nM; in that of `C=CCCn1c(C)c(C)c2ccnc(N(C)Cc3ccc(F)cc3)c21` [Example 157, 1-(but-3-enyl)-7-[N-(4-fluorobenzyl)-N-methyl]amino-2,3-dimethyl-1H-pyrrolo[2,3-c]pyridine hydrochloride], 380 nM. As for `Cc1[nH]c2c(-c3ccc(Cl)cc3)nccc2c1C` [Example 299, 7-(4-chlorophenyl)-2,3-dimethyl-1H-pyrrolo[2,3-c]pyridine hydrochloride], the figure is 350 nM; as for `Cc1ccc(Cn2c(C)c(C)c3ccnc(-c4ccc(C)cc4)c32)cc1` [Example 279, 2,3-dimethyl-1-(4-methylbenzyl)-7-(p-tolyl)-1H-pyrrolo[2,3-c]pyridine hydrochloride], 231 nM. On to `CSc1ccc(-c2nccc3c(C)c(C)n(Cc4ccccc4)c23)cc1` [Example 268, 1-benzyl-2,3-dimethyl-7-(4-methylsulfanylphenyl)-1H-pyrrolo[2,3-c]pyridine hydrochloride], for which the IC50 was found to be 130 nM. In the case of `Cc1c(C)n(Cc2ccccc2)c2c(N3CCc4ccccc4C3)nc(C(=O)N3CCNCC3)cc12` [Example 812, [1-benzyl-7-(3,4-dihydro-1H-isoquinolin-2-yl)-2,3-dimethyl-1H-pyrrolo[2,3-c]pyridin-5-yl]-(piperazin-1-yl)-methanone hydrochloride] it was 21 nM; in that of `Cc1c(C)n(Cc2cccc(Cl)c2)c2c(N3CCc4ccccc4C3)nc(C(=O)O)cc12` [Example 735, 1-(3-chlorobenzyl)-7-(3,4-dihydro-1H-isoquinolin-2-yl)-2,3-dimethyl-1H-pyrrolo[2,3-c]pyridin-5-carboxylic acid], 54 nM. As for `CSc1ccc(-c2nccc3c(C)c(C)n(Cc4cccc(F)c4)c23)cc1` [Example 272, 2,3-dimethyl-1-(3-fluorobenzyl)-7-(4-methylsulfanylphenyl)-1H-pyrrolo[2,3-c]pyridine hydrochloride], the figure is 220 nM; as for `COc1cccc(Cn2c(C)c(C)c3cc(C(=O)N4CCC(C)CC4)nc(N4CCc5ccccc5C4)c32)c1` [Example 823, [7-(3,4-dihydro-1H-isoquinolin-2-yl)-1-(3-methoxybenzyl)-2,3-dimethyl-1H-pyrrolo[2,3-c]pyridin-5-yl]-(4-methylpiperidin-1-yl)-methanone hydrochloride], 216 nM.

In general, IC50 refers to the point on the concentration scale where inhibition reaches its midpoint. The low end stands for greater potency, the high end for weaker potency.
